Laboratory results as given in ChEMBL document CHEMBL5244230, “Artemisinin-derived hybrids and their anticancer activity” (Eur J Med Chem, 2020).
Values joined by “and” are separate entries in the source; they are usually repeats but may differ in a detail not shown here. Equal entries are not always repeated.

Tests used:
SMMC-7721 = assay: Antiproliferative activity against human SMMC-7721 cells; assay type: functional, cell-based
A549 [1] = assay: Antiproliferative activity against human A549 cells; assay type: functional, cell-based
HCT-116 [2] = assay: Antiproliferative activity against human HCT-116 cells; assay type: functional, cell-based
MV4-11 = assay: Antiproliferative activity against human MV4-11 cells; assay type: functional, cell-based
HeLa [3] = assay: Cytotoxicity against human HeLa cells assessed as cell viability incubated for 48 hrs by MTT assay; assay type: functional, cell-based
PC-3 = assay: Antiproliferative activity against human PC-3 cells assessed as reduction in cell viability measured for 24 hrs; assay type: functional, cell-based; details: PC-3, 24 h
A549 [4] = assay: Antiproliferative activity against human A549 cells assessed as reduction in cell viability measured for 24 hrs; assay type: functional, cell-based; details: A549, 24 h
SGC-7901 = assay: Antiproliferative activity against human SGC-7901 cells assessed as reduction in cell viability measured for 24 hrs; assay type: functional, cell-based; details: SGC-7901, 24 h
HCT-116 [5] = assay: Antiproliferative activity against human HCT-116 cells assessed as reduction in cell viability; assay type: functional, cell-based; details: Homo sapiens, HCT-116
HeLa [6] = assay: Antiproliferative activity against human HeLa cells assessed as reduction in cell viability; assay type: functional, cell-based
A2780 = assay: Antiproliferative activity against human A2780 cells assessed as reduction in cell viability; assay type: functional, cell-based
HepG2 [7] = assay: Antiproliferative activity against human HepG2 cells assessed as reduction in cell viability; assay type: functional, cell-based
OVCAR-3 = assay: Antiproliferative activity against human OVCAR-3 cells assessed as reduction in cell viability; assay type: functional, cell-based
Hep 3B2 = assay: Antiproliferative activity against human Hep3B cells assessed as reduction in cell viability; assay type: functional, cell-based
[8] = Cytotoxicity against human HCEC cells; assay type: toxicity, cell-based
A549 [9] = assay: Antiproliferative activity against human A549 cells assessed as cell growth inhibition by MTT assay; assay type: functional, cell-based
HepG2 [10] = assay: Antiproliferative activity against human HepG2 cells assessed as cell growth inhibition by MTT assay; assay type: functional, cell-based
HCT-15 = assay: Antiproliferative activity against human HCT-15 cells assessed as cell growth inhibition by MTT assay; assay type: functional, cell-based
MCF7 = assay: Anticancer activity against human MCF7 cells; assay type: functional, cell-based
KB = assay: Antiproliferative activity against human KB cells; assay type: functional, cell-based
HepG2 [11] = assay: Antiproliferative activity against human HepG2 cells; assay type: functional, cell-based

`C[C@H]1[C@H](N2CCS(=O)(=O)[C@H](CCCCCCOC(=O)c3ccc([N+](=O)[O-])cc3C(=O)O)C2)O[C@@H]2O[C@@]3(C)CC[C@H]4[C@H](C)CC[C@@H]1[C@@]24OO3` gave an IC50 (SMMC-7721) of 60 nM.
With `COC(=O)c1ccc2c(c1)c(NCC(C)(C)CNC(=O)CCC(=O)O[C@H]1O[C@@H]3O[C@@]4(C)CC[C@H]5[C@H](C)CC[C@@H]([C@H]1C)[C@@]35OO4)c1c3ccccc3nc-1n2C` the IC50 (A549 [1]) was 72 nM, the IC50 (HCT-116 [2]) was 72 nM and the IC50 (MV4-11) was 72 nM.
`COc1ccc2nc3cc(Cl)ccc3c(N3CCN(CCNCCO[C@H]4O[C@@H]5O[C@@]6(C)CC[C@H]7[C@H](C)CC[C@@H]([C@H]4C)[C@@]57OO6)CC3)c2c1` showed an IC50 (HeLa [3]) of 400 nM.
`COc1ccc(Sc2cccc(C(=O)O[C@@H]3O[C@@H]4O[C@@]5(C)CC[C@H]6[C@H](C)[C@H](OC(=O)c7cccc(Sc8ccc(OC)cc8)c7)C[C@@H]([C@H]3C)[C@@]46OO5)c2)cc1` showed an IC50 (PC-3) of 1600 nM, an IC50 (A549 [4]) of 1600 nM and an IC50 (SGC-7901) of 1600 nM.
In the case of `C[C@H]1[C@@H](CC(COP(=O)(O)Oc2ccccc2)C[C@H]2O[C@@H]3O[C@]4(C)CC[C@H]5[C@H](C)CC[C@@H]([C@H]2C)[C@@]35OO4)O[C@@H]2O[C@@]3(C)CC[C@H]4[C@H](C)CC[C@@H]1[C@@]24OO3` (some centres not stated), the IC50 (HCT-116 [5]) is reported as 40 nM and the IC50 (HeLa [6]) is reported as 40 nM.
`COc1ccc2c(N3CCN(CCCNCCO[C@H]4O[C@@H]5O[C@@]6(C)CC[C@H]7[C@H](C)CC[C@@H]([C@H]4C)[C@@]57OO6)CC3)c3ccc(Cl)cc3nc2c1` gave an IC50 (HeLa [3]) of 800 nM.
Work on `C[C@H]1[C@@H](CCCOP(=O)(Oc2ccccc2)Oc2ccccc2)O[C@@H]2O[C@@]3(C)CC[C@H]4[C@H](C)CC[C@@H]1[C@@]24OO3` yielded an IC50 (HCT-116 [5]) of 3820 nM and an IC50 (HeLa [6]) of 3820 nM.
In the case of `CCN(CC)c1ccc2cc(C(=O)N3CCN(C(=O)CN4CCN(CCC[C@H]5O[C@@H]6O[C@@]7(C)CC[C@H]8[C@H](C)CC[C@@H]([C@H]5C)[C@@]68OO7)CC4)CC3)c(=O)oc2c1`, the IC50 (A2780) is reported as 2330 nM, the IC50 (HepG2 [7]; hepg2) is reported as 2330 nM and 6280 nM and the IC50 (OVCAR-3) is reported as 2330 nM. The IC50 (Hep 3B2) was 2330 nM.
For `COC(=O)c1ccc2c(c1)c(NCCCNC(=O)CCC(=O)O[C@H]1O[C@@H]3O[C@@]4(C)CC[C@H]5[C@H](C)CC[C@@H]([C@H]1C)[C@@]35OO4)c1c3ccccc3nc-1n2C`, the IC50 (A549 [1]) was 72 nM, the IC50 (HCT-116 [2]) was 72 nM and the IC50 (MV4-11) was 72 nM.
Work on `C[C@H]1[C@H](Sc2ccccc2)O[C@@H]2O[C@@]3(C)CC[C@H]4[C@H](C)CC[C@@H]1[C@@]24OO3` yielded an IC50 [8] of 930 nM.
Work on `CCN(CC)c1ccc2cc(C(=O)N3CCN(CCC[C@H]4O[C@@H]5O[C@@]6(C)CC[C@H]7[C@H](C)CC[C@@H]([C@H]4C)[C@@]57OO6)CC3)c(=O)oc2c1` yielded an IC50 (A2780) of 2330 nM, an IC50 (HepG2 [7]; Homo sapiens, HepG2) of 2330 nM and an IC50 (OVCAR-3) of 2330 nM. For the same compound, the IC50 (Hep 3B2) was 2330 nM.
For `CCN(CC)c1ccc2cc(C(=O)NCCNC(=O)CN3CCN(CCC[C@H]4O[C@@H]5O[C@@]6(C)CC[C@H]7[C@H](C)CC[C@@H]([C@H]4C)[C@@]57OO6)CC3)c(=O)oc2c1`, the IC50 (A2780) was 2330 nM, the IC50 (HepG2 [7]; hepg2) was 2330 nM and 6280 nM and the IC50 (OVCAR-3) was 2330 nM. It also gave an IC50 (Hep 3B2) of 2330 nM.
Work on `COC(=O)c1ccc2c(c1)c(NCC(O)CNC(=O)CCC(=O)O[C@H]1O[C@@H]3O[C@@]4(C)CC[C@H]5[C@H](C)CC[C@@H]([C@H]1C)[C@@]35OO4)c1c3ccccc3nc-1n2C` (some centres not stated) yielded an IC50 (A549 [1]) of 72 nM, an IC50 (HCT-116 [2]) of 72 nM and an IC50 (MV4-11) of 72 nM.
With `O=c1[nH]cc(F)c(=O)[nH]1` [FLUOROURACIL] the IC50 (A549 [9]) was 33700 nM, the IC50 (HepG2 [10]) was 33700 nM and the IC50 (PC-3) was 6800 nM. The IC50 (HCT-15) was 33700 nM, the IC50 (A549 [4]) was 6800 nM and the IC50 [8] was greater than 100000 nM. The IC50 (MCF7) was greater than 40000 nM and the IC50 (SGC-7901) was 6800 nM.
For `Cc1cn(C2C[C@H](n3cc(CNC(=O)C(C)CC(=O)O[C@@H]4O[C@@H]5O[C@@]6(C)CC[C@H]7[C@H](C)CC[C@@H]([C@H]4C)[C@@]57OO6)nn3)[C@@H](CO)O2)c(=O)[nH]c1=O` (single isomer, unassigned), the IC50 (KB) was 47600 nM and the IC50 (HepG2 [11]) was 47600 nM.
